A word on the IC50: it is the concentration that inhibits the measured activity by half. For orientation: Papp B→A means how fast a substance crosses the layer from the basolateral side. Usually efflux ratio stands for the permeability from basolateral to apical divided by that in the opposite direction, in the common usage.

The text below walks through data of patent US10744205B2, “Antibody drug conjugates of kinesin spindel protein (KSP) inhibitors with anti-CD123-antibodies” (Bayer Pharma Aktiengesellschaft, priority 2015, dated 2020).

Series [1] concerns NCI-H292: human mucoepidermoid lung carcinoma cells. In words: Cytotoxicity of metabolites, MTT assay, NCI-H292. The note with it: growth inhibition, 96 h incubation. The class given is cell-based. As for the experimental part:
The analysis of the cytotoxic effects of the anti-CD123 ADCs and the corresponding metabolites was carried out with various cell lines:
NCI-H292: human mucoepidermoid lung carcinoma cells, ATCC-CRL-1848, standard medium: RPMI 1640 (Biochrom; # FG1215, stab. glutamine)+10% FCS (Biochrom; # S0415).
The cells were cultivated by the standard method as stated by the American Tissue Culture Collection (ATCC) or the Leibniz-Institut DSMZ-Deutsche Sammlung von Mikroorganismen und Zellkulturen GmbH (DSMZ) for the cell lines in question.
The cells were cultivated according to the standard method using the growth media listed under C-1. The test is carried out by detaching the cells with a solution of Accutase in PBS (Biochrom AG # L2143), pelleting, resuspending in culture medium, counting and sowing into a 96-well culture plate with white bottom (Costar #3610) (NCI H292: 2500 cells/well; MOLM-13: 2000 cells/well; THP-1: 8000 cells/well; KG-1: 5000 cells/well in a total volume of 100 μl). The cells were then incubated in an incubator at 37° C. and 5% carbon dioxide. After 48 h, the medium was replaced.
The antibody drug conjugates or the metabolites in 10 μl of culture medium in concentrations from 10^−5M to 10^−13M were then pipetted to the cells (in triplicate), and the assay was then incubated in an incubator at 37° C. and 5% carbon dioxide. […] To this end, the MTT reagent was incubated with the cells for 4 h, followed by lysis of the cells overnight by addition of the detergent. The dye formed was detected at 570 nm (Infinite M1000 pro, Tecan). The measured data were used to calculate the IC50 of the growth inhibition using the DRC (dose response curve).
The proliferation of cells which were not treated with test substance but were otherwise identically treated was defined as the 100% figure.
Table 2 below lists the IC50 values of representative working examples from the assay described and the corresponding cytotoxicity data (MTT assay).

In another series the test system is KPL4. In words: Cytotoxicity of metabolites, MTT assay, KPL4. The class given is cell-based. For orientation: Tetrazolium dyes change colour on reduction, which living cells bring about.
Series [2] has as its target T1, motor domain of the human kinesin spindle protein KSP/Eg5 (Homo sapiens, UniProt P52732).
T1 construct: The motor domain of the human kinesin spindle protein KSP/Eg5; purchased tebu-bio/Cytoskeleton Inc 027EG01-XL
T1 sequence (P52732 18-359 limits assumed): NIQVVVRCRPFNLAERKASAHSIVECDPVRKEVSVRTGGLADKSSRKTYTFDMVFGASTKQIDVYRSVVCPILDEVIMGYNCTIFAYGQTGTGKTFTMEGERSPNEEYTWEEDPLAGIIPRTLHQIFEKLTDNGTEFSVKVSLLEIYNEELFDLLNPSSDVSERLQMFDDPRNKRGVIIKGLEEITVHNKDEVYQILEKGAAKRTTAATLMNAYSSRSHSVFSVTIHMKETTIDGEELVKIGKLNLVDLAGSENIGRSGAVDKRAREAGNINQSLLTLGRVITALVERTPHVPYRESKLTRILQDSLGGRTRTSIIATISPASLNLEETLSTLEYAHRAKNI
In words: Inhibition of the kinesin spindle protein KSP/Eg5 (ATPase activity, malachite green). The note with it: 10 nM KSP/Eg5, microtubuli, 500 μM ATP, 2 h at RT. The format is biochemical.
Protocol: C-1b Determination of the Inhibition of the Kinesin Spindle Protein KSP/Eg5 by Selected Examples
The motor domain of the human kinesin spindle protein KSP/Eg5 (tebu-bio/Cytoskeleton Inc, No. 027EG01-XL) was incubated in a concentration of 10 nM with microtubuli (bovine or porcine, tebu-bio/Cytoskeleton Inc) stabilized with 50 μg/ml taxol (Sigma No. T7191-5MG) for 5 min at RT in 15 mM PIPES, pH 6.8 (5 mM MgCl2 and 10 mM DTT, Sigma). […] Incubation was at RT for 2 h. ATPase activity was detected by detecting the inorganic phosphate formed using malachite green (Biomol). […] The positive controls used were monastrol (Sigma, M8515-1 mg) and ispinesib (AdooQ Bioscience A10486). The individual data of the dose-activity curve are eight-fold determinations. The IC50 values are means of two independent experiments.

Series [3] in a line: Cell permeability, flux assay using Caco-2 cells. The note with it: human. The class given is in vitro ADME. (In general: Caco-2 monolayers are a common model of the intestinal barrier.)
For the next series, the system named is Caco-2 cells. In words: Cell permeability, flux assay using Caco-2 cells. The note with it: Caco-2, B to A, 2 hours. The class given is in vitro ADME.

Turning to `CC(C)(C)[C@H](c1cc(-c2cc(F)ccc2F)cn1Cc1ccccc1)N(CC[C@H](N)C(=O)NCCNC(=O)CN1C(=O)CC(SC[C@H](N)C(=O)O)C1=O)C(=O)CO` (stereo partly drawn) [Example M1, S-[1-(2-{[2-({(2S)-2-Amino-4-[{(1R)-1-[1-benzyl-4-(2,5-difluorophenyl)-1H-pyrrol-2-yl]-2,2-dimethylpropyl}(glycoloyl)amino]butanoyl}amino)ethyl]amino}-2-oxoethyl)-2,5-dioxopyrrolidin-3-yl]-L-cysteine/trifluoroacetic acid (1:1)], the half-inhibitory concentration (IC50) in series [1] (Homo sapiens, NCI-H292, 96 h) is at least 500 nM; in the series on KPL4 (KPL4, growth inhibition), at least 500 nM.
Regarding `CC(C)(C)[C@H](c1cc(-c2cc(F)ccc2F)cn1Cc1ccccc1)N(CCCN)C(=O)CSC[C@H](NC(=O)CCOCCOCCOCCOCCNC(=O)CNC(=O)[C@H](CC(=O)O)SC[C@H](N)C(=O)O)C(=O)O.O=C(O)C(F)(F)F.O=C(O)C(F)(F)F` [Example M21, (2R,24S,27R)-27-Amino-2-[({2-[(3-aminopropyl){(1R)-1-[1-benzyl-4-(2,5-difluorophenyl)-1H-pyrrol-2-yl]-2,2-dimethylpropyl}amino]-2-oxoethyl}sulphanyl)methyl]-24-(carboxymethyl)-4,20,23-trioxo-7,10,13,16-tetraoxa-25-thia-3,19,22-triazaoctacosane-1,28-dioic acid trifluoroacetic acid (1:2)], in series [2], the midpoint of inhibition, the IC50, lay at 2.31 nM. Further, the Papp B→A at 2 h in series [3] (Caco-2, B to A, 2 hours) turned out to be 0.05 ×10⁻⁶ cm/s. For the same molecule, the efflux ratio at 2 h in series [3] (Caco-2, ratio of Papp (B-A) to Papp (A-B)) worked out at 1.5.
For the molecule `CC(C)(C)[C@H](c1cc(-c2cc(F)ccc2F)cn1Cc1ccccc1)N(CC[C@H](N)C(=O)NCCC(=O)N[C@@H](CCC(=O)O)C(=O)O)C(=O)CO` [Example M23, N-{(2S)-2-Amino-4-[{(1R)-1-[1-benzyl-4-(2,5-difluorophenyl)-1H-pyrrol-2-yl]-2,2-dimethylpropyl}(glycoloyl)amino]butanoyl}-beta-alanyl-L-glutamic acid/trifluoroacetic acid (1:1)], the IC50 in series [1] (Homo sapiens, NCI-H292, 96 h) is at least 500 nM; in the series with KPL4 (KPL4, growth inhibition), at least 500 nM.
With `CC(C)(C)[C@H](c1cc(-c2cc(F)ccc2F)cn1Cc1ccccc1)N(CC[C@H](N)C(=O)NCCC(=O)N[C@H](CCC(=O)O)C(=O)O)C(=O)CO` [Example M24, N-{(2S)-2-Amino-4-[{(1R)-1-[1-benzyl-4-(2,5-difluorophenyl)-1H-pyrrol-2-yl]-2,2-dimethylpropyl}(glycoloyl)amino]butanoyl}-beta-alanyl-D-glutamic acid/trifluoroacetic acid (1:1)], the IC50 in the series on KPL4 (KPL4, growth inhibition) was at least 500 nM.
As for “(1R,4R,27R,33R)-1-Amino-32-(3-aminopropyl)-33-[1-benzyl-4-(2,5-difluorophenyl)-1H-pyrrol-2-yl]-34,34-dimethyl-6,9,25,31-tetraoxo-13,16,19,22-tetraoxa-3,29-dithia-7,10,26,32-tetraazapentatriacontane-1,4,27-tricarboxylic acid/trifluoroacetic acid (1:2) [Example M20]”, the half-maximal inhibitory concentration (IC50) in series [1] was determined as 149 nM; with KPL4 (growth inhibition), 213 nM.
For “N-{(2S)-2-Amino-4-[{(1R)-1-[1-benzyl-4-(2,5-difluorophenyl)-1H-pyrrol-2-yl]-2,2-dimethyl propyl}(glycoloyl)amino]butanoyl}-L-glutamic acid/trifluoroacetic acid (1:1) [Example M25]”, the “Papp (B-A)” value in the series with Caco-2 cells amounted to 0.81 ×10⁻⁶ cm/s. Further, the IC50 (in series [1]; with KPL4 (growth inhibition)) was at least 500 nM in each case.
